From patent US20250230154A1, “COMPOUND HAVING SHP2 PROTEIN DEGRADING ACTIVITY, AND MEDICAL USES THEREOF” (UBIX THERAPEUTICS, INC., priority 2021, published 2025)

Target: T1, SHP2 protein (Homo sapiens, UniProt Q06124)
T1 sequence (Q06124 1-593): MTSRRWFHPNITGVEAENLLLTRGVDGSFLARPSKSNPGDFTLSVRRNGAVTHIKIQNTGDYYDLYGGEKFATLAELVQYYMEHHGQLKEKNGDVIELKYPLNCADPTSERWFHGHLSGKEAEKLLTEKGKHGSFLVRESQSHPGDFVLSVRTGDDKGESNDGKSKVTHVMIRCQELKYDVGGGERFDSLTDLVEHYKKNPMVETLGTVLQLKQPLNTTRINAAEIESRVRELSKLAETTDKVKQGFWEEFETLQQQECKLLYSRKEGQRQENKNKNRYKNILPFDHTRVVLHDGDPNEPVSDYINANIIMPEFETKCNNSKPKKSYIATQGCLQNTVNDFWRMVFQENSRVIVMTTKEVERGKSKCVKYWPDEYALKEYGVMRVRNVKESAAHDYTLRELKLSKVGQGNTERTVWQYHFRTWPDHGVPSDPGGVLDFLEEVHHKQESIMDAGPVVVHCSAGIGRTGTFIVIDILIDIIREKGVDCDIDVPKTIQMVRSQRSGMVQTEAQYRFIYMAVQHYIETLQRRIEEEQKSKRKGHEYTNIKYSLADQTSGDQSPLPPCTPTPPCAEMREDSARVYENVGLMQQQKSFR
Test: Measurement of SHP2 protein degradation in KYSE-520 cells (western blotting)
Assay type: cell-based
Parameters: endogenous in cells
Details: 24 hours
Procedure: Experimental Example 1: Measurement of SHP2 Protein Degradation in KYSE-520 Cells
KYSE-520 cells were treated with the synthesized Example compound, and the amount of SHP2 protein present in the cells was measured using western blotting detection. The protocol of the experiment conducted using KYSE-520 cells was as follows:
[Culture] KYSE-520 cells resuspended in RPMI1640 MEDIUM (Hyclone, SH30027.01) containing 5% FBS (Hyclone, SV30207.02) and 1% Penicillin-streptomycin (Welgene, LS 202-02) were seeded at a density of 2.5×10^5/well in a 6-well plate in an amount of 2 ml each and incubated for 2 days.
[Compound treatment] […] After 24 hours, cells were harvested. For the negative control group, DMSO diluted 1/10 to the media (3 mL DMSO+27 mL media) was added.
[Cell Lysis and Protein Quantification] Lysis buffer was prepared as follows: […] of RIPA buffer (Biosesang, RC2038-050-00)+0.5 mM PMSF (SIGMA, P7626)+1× Protease/Phosphatase Inhibitor (Cell signaling, 5872S) per well was added and placed on ice for 30 minutes (vortexing at 0 and 30 minutes, respectively). After sonication process (10 seconds pulse, 30 seconds rest, 5 cycles, 70% amplification), centrifugation (15000 g, 15 min, 4° C.) was performed, and then only the supernatant was taken and transferred to a new microtube. The sample was diluted ¼ with RIPA buffer in a 96-well plate, and mixed with A:B=50:1 of the BCA Protein Assay Kit (iNtRON, 21071). […] each of the mixture was left at 37° C. for 30 minutes, and cooled for 10 minutes. Then, absorbance was measured at 562 nm with the SYNERGY H1 microplate reader from BioTek. After making a sample by quantifying the protein with the measured value, boiling was performed at 70° C. for 10 minutes. At this time, the sample buffer used was a mixture of NuPAGE or Bolt 4× sample buffer (Invitrogen) and each 10× sample reducing agent according to the gel to be used, and RIPA buffer was used for protein dilution.
[Western blotting detection method] The same amount of sample was loaded on NuPAGE or Bolt Bis-tris 4-12% gradient gel and run (200 V, 35 minutes). It was transferred to 0.2 mm NC membrane with Trans-blot Turbo (BIO-RAD) (1.3 A constant, 25 V limit, 15 minutes). Blocking was performed at room temperature for 1 hour with Skim milk or Intercept Blocking Buffer (LI-COR, 927-60001):0.1% TBST=1:1. Anti SHPTP2 Mouse (1:500 in 5% Skim milk/TBST, size: 70 kDa, Santacruz sc-7384) was incubated overnight at 4° C., and Anti GAPDH Rabbit (1:2,000 in 5% BSA/0.2% TBST, size: 37 kDa, CST #2118) was incubated at room temperature for 1 hour 30 minutes or 3 hours. It was washed 3 times for 5 minutes each with 0.2% TBST washing buffer. Secondary antibody Anti-Rabbit IgG (1:5,000 in 5% Skim milk/0.2% TBST, CST), and IRDye® 680RD Goat anti-Rabbit IgG Secondary Antibody (1:10,000 in 5% BSA/0.2% TBST, LI-COR 926-68071) were incubated for 45 minutes on a rocker at room temperature. It was washed 5 times for 5 minutes each with 0.2% TBST washing buffer and detected with LI-COR's Odyssey. At this time, SHPTP2 was detected using SuperSignal West Pico PLUS Chemiluminescent Substrate, and house-keeping genes were also detected.
In the results of Table 4 below, Compounds 1-7, 13-19, and 21-26 are results in KYSE-520 cells, and the others are results in MV-4-11 cells.

SMILES | SHP2 degradation (%) 10 nM | SHP2 degradation (%) 100 nM | SHP2 degradation (%) 1000 nM
Cc1ncsc1-c1ccc(CNC(=O)[C@@H]2C[C@@H](O)CN2C(=O)[C@@H](NC(=O)C2(F)CC2)C(C)(C)C)c(OCCCN2CCC(C(=O)Nc3cccc(Sc4cnc(N5CCC(C)(CN)CC5)cn4)c3Cl)CC2)c1 [Example 1, N-(3-((5-(4-(aminomethyl)-4-methylpiperidin-1-yl)pyrazin-2-yl)thio)-2-chlorophenyl)-1-(3-(2-(((2S,4R)-1-((S)-2-(1-fluorocyclopropane-1-carboxamido)-3,3-dimethylbutanoyl)-4-hydroxypyrrolidine-2-carboxamido)methyl)-5-(4-methylthiazol-5-yl)phenoxy)propyl)piperidine-4-carboxamide] | 28.9% | 64.5% | 74.5%
Cc1ncsc1-c1ccc(CNC(=O)[C@@H]2C[C@@H](O)CN2C(=O)[C@@H](NC(=O)C2(F)CC2)C(C)(C)C)c(OCCCCN2CCC(C(=O)Nc3cccc(Sc4cnc(N5CCC(C)(CN)CC5)cn4)c3Cl)CC2)c1 [Example 2, N-(3-((5-(4-(aminomethyl)-4-methylpiperidin-1-yl)pyrazin-2-yl)thio)-2-chlorophenyl)-1-(4-(2-(((2S,4R)-1-((S)-2-(1-fluorocyclopropane-1-carboxamido)-3,3-dimethylbutanoyl)-4-hydroxypyrrolidine-2-carboxamido)methyl)-5-(4-methylthiazol-5-yl)phenoxy)butyl)piperidine-4-carboxamide] | 23.3% | 81.8% | 94.3%
Cc1ncsc1-c1ccc(CNC(=O)[C@@H]2C[C@@H](O)CN2C(=O)[C@@H](NC(=O)C2(F)CC2)C(C)(C)C)c(OCCCC(=O)N2CCC(CCCC(=O)Nc3cccc(Sc4cnc(N5CCC(C)(CN)CC5)cn4)c3Cl)CC2)c1 [Example 25, (2S,4R)—N-(2-(4-(4-(4-((3-((5-(4-(aminomethyl)-4-methylpiperidin-1-yl)pyrazin-2-yl)thio)-2-chlorophenyl)amino)-4-oxobutyl)piperidin-1-yl)-4-oxobutoxy)-4-(4-methylthiazol-5-yl)benzyl)-1-((S)-2-(1-fluorocyclopropane-1-carboxamido)-3,3-dimethylbutanoyl)-4-hydroxypyrrolidine-2-carboxamide] | – | 61.8% | 94.7%
Cc1ncsc1-c1ccc(CNC(=O)[C@@H]2C[C@@H](O)CN2C(=O)[C@@H](NC(=O)C2(F)CC2)C(C)(C)C)c(OCCCC(=O)N2CCC(CCC(=O)Nc3cccc(Sc4cnc(N5CCC(C)(CN)CC5)cn4)c3Cl)CC2)c1 [Example 24, (2S,4R)—N-(2-(4-(4-(3-((3-((5-(4-(aminomethyl)-4-methylpiperidin-1-yl)pyrazin-2-yl)thio)-2-chlorophenyl)amino)-3-oxopropyl)piperidin-1-yl)-4-oxobutoxy)-4-(4-methylthiazol-5-yl)benzyl)-1-((S)-2-(1-fluorocyclopropane-1-carboxamido)-3,3-dimethylbutanoyl)-4-hydroxypyrrolidine-2-carboxamide] | 15.1% | 52.1% | 74.7%
Cc1ncsc1-c1ccc(CNC(=O)[C@@H]2C[C@@H](O)CN2C(=O)[C@@H](NC(=O)C2(F)CC2)C(C)(C)C)c(OCCCCCCN2CCC(CCCC(=O)Nc3cccc(Sc4cnc(N5CCC(C)(CN)CC5)cn4)c3Cl)CC2)c1 [Example 18, (2S,4R)—N-(2-((6-(4-(4-((3-((5-(4-(aminomethyl)-4-methylpiperidin-1-yl)pyrazin-2-yl)thio)-2-chlorophenyl)amino)-4-oxobutyl)piperidin-1-yl)hexyl)oxy)-4-(4-methylthiazol-5-yl)benzyl)-1-((S)-2-(1-fluorocyclopropane-1-carboxamido)-3,3-dimethylbutanoyl)-4-hydroxypyrrolidine-2-carboxamide] | −9.0% | 56.9% | 91.8%
